# Source: patent publication US20090143279A1 (priority 2007, published 2009)
# “And” between values parts separate entries of the source, which are not always exact repeats. Identical values can stand only once. Counter-ions that a name gives are not always drawn. Where a SMILES comes first, the peptide text is derived from it.
# Test system: cytochrome c
# Format: cell-based, mouse
# Details: not given
Compound,cyt c,cyt c (composite Z-score vs DMSO),cyt c (composite Z-score vs DMSO mock-treated wells),cyt c (composite Z-score)
CC(=C(CCO)SSCC1CCCO1)N(C=O)Cc1cnc(C)nc1N (stereo in doubt) [fursultiamine],0.477,–,–,–
CC(C)CCC[C@@H](C)[C@H]1CC[C@H]2[C@@H]3CC=C4CC(=O)CC[C@]4(C)[C@H]3CC[C@]12C [cholest-5-en-3-one],0.600,–,–,–
CN(C)CCC=C1c2ccccc2COc2ccccc21 [doxepin],1.151,−0.095,–,–
Cn1c(=O)c2c(ncn2C)n(C)c1=O [caffeine],–,0.292,–,–
CC1(C)CC[C@]2(C(=O)O)CC[C@]3(C)C(=CC[C@@H]4[C@@]5(C)CC[C@H](O)C(C)(C)[C@@H]5CC[C@]43C)[C@@H]2C1 [oleanolic acid],0.866,–,–,–
COc1ccc(C(C)=O)c(O)c1 [paeonol],0.306,–,–,–
C[C@]12C=CC(=O)C=C1CC[C@H]1[C@@H]3C[C@@H](O)[C@](O)(C(=O)CO)[C@@]3(C)C[C@H](O)[C@@]12F [triamcinolone],−1.483,0.087,–,–
Cc1cccc(C)c1OCC(C)N (centres unmarked) [mexiletine],1.114,–,–,–
CN1[C@@H]2CC[C@H]1C[C@@H](OC(c1ccccc1)c1ccccc1)C2 [benztropine],–,–,−1.170,–
CC(C)(C)C(=O)C(Oc1ccc(Cl)cc1)n1cncn1 (centres unmarked) [triadimefon],0.286,–,–,–
COc1cc2nc(N3CCN(C(=O)C4CCCO4)CC3)nc(N)c2cc1OC (centres unmarked) [terazosin],–,−0.258,–,–
C#C[C@]1(O)CC[C@H]2[C@@H]3CCC4=C(CCC(=O)C4)[C@H]3CC[C@@]21C [norethynodrel],−0.145,–,−0.058,–
C#C[C@]1(O)CC[C@H]2[C@@H]3CCC4=CC(=O)CC[C@@H]4[C@H]3CC[C@@]21C [norethindrone],0.903,–,0.056,–
Cc1c(C(N)=O)cc([N+](=O)[O-])cc1[N+](=O)[O-] [dinitolmide],–,0.218,–,–
CC1=C(/C=C/C(C)=C/C=C/C(C)=C/C=C/C=C(C)/C=C/C=C(C)/C=C/C2=C(C)CCCC2(C)C)C(C)(C)CCC1 [beta-carotene],0.027,–,–,–
Cc1cc(O)cc(=O)o1 [4-hydroxy-6-methylpyran-2-one],−0.316,–,–,–
Oc1ccc2c3c1O[C@H]1[C@@H](O)CC[C@@]4(O)[C@@H](C2)N(CC2CCC2)CC[C@]314 [nalbuphine],0.276,−0.613,–,–
COc1c2ccoc2c(OC)c2oc(=O)ccc12 [isopimpinellin],0.230,–,–,–
CCN[C@H]1C[C@H](C)S(=O)(=O)c2sc(S(N)(=O)=O)cc21 [dorzolamide],–,−0.076,–,–
NC1(C(=O)O)CCC1 [1-aminocyclobutane carboxylic acid],−0.335,–,–,–
NCCCC[C@H](N[C@@H](CCc1ccccc1)C(=O)O)C(=O)N1CCC[C@H]1C(=O)O [lisinopril],–,0.265 and 0.412,–,–
CNCCCC1c2ccccc2C=Cc2ccccc21 [protriptyline],–,–,–,−1.335
Cc1nc2n(c(=O)c1CCN1CCC(c3noc4cc(F)ccc34)CC1)CCCC2 [risperidone],–,0.243,–,–
CC(N)C(O)c1ccccc1 (centres unmarked) [phenylpropanolamine],0.947,–,–,–

Compound,cyt c,cyt c (composite Z-score vs DMSO),cyt c (composite Z-score vs DMSO mock-treated wells),cyt c (composite Z-score)
CCCC1C(=O)N2C(N(C)C)=Nc3ccc(C)cc3N2C1=O (centres unmarked) [azapropazone],0.418,–,–,–
C=CCN1CC[C@]23c4c5ccc(O)c4O[C@H]2C(=O)CC[C@@]3(O)[C@H]1C5 [naloxone],0.362 and 0.610,–,–,–
CC(C)NCC(O)COc1ccc(CCOCC2CC2)cc1 (centres unmarked) [betaxolol],0.064,–,–,–
CC(C)(C)c1ccc(C(O)CCCN2CCC(C(O)(c3ccccc3)c3ccccc3)CC2)cc1 (centres unmarked) [terfenadine],–,−0.611,–,–
NS(=O)(=O)c1cc(C(=O)O)c(NCc2ccco2)cc1Cl [furosemide],–,–,0.234 and 0.342,–
O=C(OCCOCCO)c1ccccc1Nc1cccc(C(F)(F)F)c1 [etofenamate],−0.030,–,–,–
O=C(O)c1cccnc1 [niacin],–,0.736 and 1.132,–,–
C[C@]12CC[C@H]3[C@@H](CCC4=CC(=O)CC[C@@]43C)[C@@H]1CC[C@@H]2O [testosterone],−0.787,–,–,–
CC1(C)O[C@@H]2C[C@H]3[C@@H]4C[C@H](F)C5=CC(=O)C=C[C@]5(C)[C@H]4[C@@H](O)C[C@]3(C)[C@]2(C(=O)CO)O1 [flunisolide],0.715,−0.257,–,–
CCOC(=O)[C@H](CCc1ccccc1)N[C@@H](C)C(=O)N1[C@H](C(=O)O)C[C@H]2CCCC[C@@H]21 [trandolapril],0.039,–,–,–
C[C@@H]1CC[C@H]2C(C)(C)[C@H]3C[C@@]12CC[C@@]3(C)O [cedrol],−0.218,–,–,–
Cc1ccc(O)c([C@H](CCN(C(C)C)C(C)C)c2ccccc2)c1 [tolterodine],−0.406,–,–,–
O=C(/C=C/c1ccc(O)cc1)c1ccc(O)cc1O [isoliquiritigenin],–,–,–,0.089
N[C@@H](CCC(=O)N[C@@H](CS)C(=O)NCC(=O)O)C(=O)O [glutathione],–,−0.913,–,–
CN1[C@@H]2CC[C@H]1C[C@@H](OC(=O)C(CO)c1ccccc1)C2 (some centres unmarked) [atropine sulfate],0.071,–,–,–
C[C@@H](O)[C@H]1C(=O)N2C(C(=O)O)=C(SCCN=CN)C[C@H]12 [imipenem],−0.330,–,–,–
O=C(O)COCCN1CCN(C(c2ccccc2)c2ccc(Cl)cc2)CC1 (centres unmarked) [cetirizine],0.507,–,–,–
NCCc1c[nH]cn1 [histamine],–,0.016,–,–
C[C@H](CCC(=O)O)[C@H]1CC[C@H]2[C@@H]3[C@H](O)C[C@@H]4C[C@H](O)CC[C@]4(C)[C@H]3C[C@H](O)[C@]12C [cholic acid],0.514,–,–,–
CN(CCOc1ccc(CC2SC(=O)NC2=O)cc1)c1ccccn1 (centres unmarked) [rosiglitazone],−0.121,–,–,–
Oc1ccc(Cl)cc1 [parachlorophenol],0.036,–,–,–
O=C1C=C(O)C(=O)c2ccccc21 [lawsone],−0.273,–,–,–
Nc1nc2nc[nH]c2c(=S)[nH]1 [thioguanine],–,−1.454,–,–
CN1CCN2c3ccccc3Cc3ccccc3C2C1 (centres unmarked) [mianserine],0.473,–,–,–

# Same assay, conditions: composite Z-score vs mock-treated (DMSO) wells; concentration of each compound in μM
row,Compound,cyt c
1,C[N+](C)(C)CCOP(=O)(O)OP(=O)([O-])OC[C@H]1O[C@@H](n2ccc(N)nc2=O)[C@H](O)[C@@H]1O [citicoline],0.322
2,O=CC=Cc1ccc(O)cc1 [p-hydroxycinnamaldehyde],−0.079
3,"COC(=O)Nc1nc2ccc([S+]([O-])c3ccccc3)cc2[nH]1 (centres unmarked) [oxfendazole, reference compound]",−0.224
4,Cc1ccc(S(=O)(=O)NC(=O)NN2CC3CCCC3C2)cc1 (centres unmarked) [gliclazide],0.147
5,COc1c(O[C@@H]2O[C@H](CO)[C@@H](O)[C@H](O)[C@H]2O)cc2c(c1OC)-c1ccc(SC)c(=O)cc1[C@@H](NC(C)=O)CC2 [thiocolchicoside],0.108
6,C=C(NC(=O)C(=C)NC(=O)c1csc(C2=N[C@@H]3c4csc(n4)[C@H]4NC(=O)c5csc(n5)[C@H]([C@](C)(O)[C@@H](C)O)NC(=O)[C@H]5CSC(=N5)/C(=C/C)NC(=O)[C@H]([C@@H](C)O)NC(=O)c5csc(n5)[C@]3(CC2)NC(=O)[C@H](C)NC(=O)C(=C)NC(=O)[C@H](C)NC(=O)[C@H]([C@@H](C)CC)N[C@@H]2C=Cc3c([C@H](C)O)cc(nc3[C@H]2O)C(=O)O[C@@H]4C)n1)C(N)=O [thiostrepton],−1.134
7,CC(C)=CCC[C@]1(C)C=Cc2c(O)c3c(c(CC=C(C)C)c2O1)O[C@]12C(=C[C@@H]4C[C@H]1C(C)(C)O[C@@]2(C/C=C(/C)C(=O)O)C4=O)C3=O [gambogic acid],−5.596
8,CC(C)CC(N(C)C)C1(c2ccc(Cl)cc2)CCC1 (centres unmarked) [sibutramine],0.351
9,NC(=O)c1cc[n+](CC2=C(C(=O)O)N3C(=O)[C@@H](NC(=O)[C@@H](c4ccccc4)S(=O)(=O)[O-])[C@H]3SC2)cc1 [cefsulodin],−1.078
10,CC(=O)O[C@]1(C(C)=O)CC[C@H]2[C@@H]3C=C(C)C4=CC(=O)CC[C@]4(C)[C@H]3CC[C@@]21C [megestrol acetate],0.810
11,CC(=O)N(CC(O)CN(C(C)=O)c1c(I)c(C(=O)NCC(O)CO)c(I)c(C(=O)NCC(O)CO)c1I)c1c(I)c(C(=O)NCC(O)CO)c(I)c(C(=O)NCC(O)CO)c1I (centres unmarked) [iodixanol],−0.092
12,C[C@]12CCC(=O)C=C1C=C[C@@H]1[C@@H]2CC[C@@]2(C)[C@H]1CC[C@@]21CCC(=O)O1 [canrenone],0.816
13,CCC(NC(C)C)C(O)c1ccc(O)c2[nH]c(=O)ccc12 (centres unmarked) [procaterol],−0.168
14,CC(=O)SCC(Cc1ccccc1)C(=O)NCC(=O)OCc1ccccc1 (centres unmarked) [racecadotril],−0.249
15,COc1ccc(CC2c3cc(OC)c(OC)cc3CC[N+]2(C)CCC(=O)OCCCCCOC(=O)CC[N+]2(C)CCc3cc(OC)c(OC)cc3C2Cc2ccc(OC)c(OC)c2)cc1OC (centres unmarked) [atracurium],1.176
16,CN1CCCC(n2nc(Cc3ccc(Cl)cc3)c3ccccc3c2=O)CC1 (centres unmarked) [azelastine],0.054
17,CCCCc1cc2ccccc2c(OCCN(C)C)n1 [dimethisoquin],−1.006
18,COc1cc(OC)c2c(=O)c(-c3ccc4c(c3)OCO4)coc2c1 [derrustone],0.470
19,C[C@@H]1O[C@@H](OC[C@H]2O[C@@H](Oc3c(-c4ccc(OCCO)c(OCCO)c4)oc4cc(OCCO)cc(O)c4c3=O)[C@H](O)[C@@H](O)[C@@H]2O)[C@H](O)[C@H](O)[C@H]1O [troxerutin],−0.673
20,COc1ccc(-c2oc3c(CC=C(C)C)c(O[C@@H]4O[C@H](CO)[C@@H](O)[C@H](O)[C@H]4O)cc(O)c3c(=O)c2O[C@@H]2O[C@@H](C)[C@H](O)[C@@H](O)[C@H]2O)cc1 [icariin],0.073
21,CC(C)[C@H](N)C(=O)N[C@@H](Cc1c[nH]c2ccccc12)C(=O)O [valyltryptophan] (H-Val-Trp-OH),−0.626
22,CC(C)=CCC/C(C)=C/COC(=O)C=Cc1ccccc1 [geranyl cinnamate],−0.107

# Same assay, conditions: normalized score (composite Z-score vs DMSO mock-treated wells); compound concentration (μM)
row,Compound,cyt c
1,CC(C)(C)NC[C@H](O)COc1ccccc1C1CCCC1 [penbutolol],0.099
